Tested on: transient ischemic attack (TIA) associated with the internal carotid arterial system
Experiment: phase III clinical study of TIA (efficacy in suppressing TIA recurrence, overall safety, utility ratings)
Assay type: in vivo, human (TIA patients)
Conditions: TIA patients; for Efficacy (%): Effective / Efficacy (%): Indeterminable / Efficacy (%): Ineffective / Efficacy (%): Slightly Effective / Efficacy (%): Worsened: ITT
Method: Subjects and total number: The subjects of this study were patients who developed one or more TIA attacks associated with the internal carotid arterial system (NIH Diagnostic Criteria, 1990) during the 3-month period before initial administration (171 for efficacy and utility, 175 for safety). Tablets each containing 50 mg or 100 mg of the subject compound obtained in Example 1 were orally administered after breakfast once daily for 18 months. The study was conducted in double blind fashion. As regards conversion to cerebral infarction, temporal changes in TIA onset frequency, TIA symptoms and duration, etc., efficacy was rated at 6 months, 1 year and 18 months of administration, using a 5-grade rating system: The attack frequency at time of rating (during therapeutic period) 1 year and 18 months after initial administration served as an efficacy rating index. For rating at 6 months of administration and rating at less than 1 year due to discontinuation (adverse reactions etc.), rating was in regard to duration of administration period, with reference to the following rating criteria. [table] Overall safety was rated on the basis of adverse reactions, complications, and presence or absence of abnormal changes in clinical laboratory parameters and their degrees, using a 5-grade rating system: On the basis of efficacy and overall safety ratings for suppression of TIA recurrence, utility was rated using a 5-grade rating system: With regard to the above rating items, data were analyzed using ITT (intent-to-treat analysis), with the utility rating in overall assessment at final administration (18 months after administration) as the major item.

[1] = 50 mg/day oral once daily for 18 months, 86 patients
[2] = 50 mg/day oral once daily for 18 months, 85 patients
[3] = 100 mg/day oral once daily for 18 months, 89 patients
[4] = 100 mg/day oral once daily for 18 months, 86 patients

## O=C(O)CCCC/C=C(\c1ccccc1)c1cccnc1 [Test compound, (E)-7-(3-pyridyl)-7-phenyl-6-heptenic acid]
[1]
  Overall Safety (%): Considerably Problematic: 1.2%
  Overall Safety (%): Indeterminable: 4.7%
  Overall Safety (%): No Problem: 86.0%
  Overall Safety (%): Slightly Problematic: 8.1%
  Overall Safety (%): Very Problematic: 0%
[2]
  Efficacy (%): Effective: 64.7%
  Efficacy (%): Indeterminable: 10.6%
  Efficacy (%): Ineffective: 16.5%
  Efficacy (%): Slightly Effective: 2.3%
  Efficacy (%): Worsened: 5.9%
[3]
  Overall Safety (%): Considerably Problematic: 1.1%
  Overall Safety (%): Indeterminable: 3.4%
  Overall Safety (%): No Problem: 79.8%
  Overall Safety (%): Slightly Problematic: 13.5%
  Overall Safety (%): Very Problematic: 2.2%
[4]
  Efficacy (%): Effective: 66.3%
  Efficacy (%): Indeterminable: 11.6%
  Efficacy (%): Ineffective: 8.1%
  Efficacy (%): Slightly Effective: 7.0%
  Efficacy (%): Worsened: 7.0%
